Experiments:
NK-92 (IL-2 2.5 ng/mL) [1] = experiment: drug sensitivity score (DSS) (DSS units); higher = more sensitive; extreme values may be limits of the assay; conditions: 72 h
YT (IL-2 2.5 ng/mL) [2] = experiment: as above; conditions: 72 h
[3] = tested on: normal primary NK cells, pool 1 (3 donors), resting (IL-2 0 ng/mL); experiment: as above; conditions: 72 h
SNK-6 (IL-2 2.5 ng/mL) [4] = experiment: as above; conditions: 72 h
NK-YS (IL-2 2.5 ng/mL) [5] = experiment: as above; conditions: 72 h
[6] = tested on: normal primary NK cells, pool 1 (3 donors) (IL-2 2.5 ng/mL); experiment: as above; conditions: 72 h
KAI3 (IL-2 2.5 ng/mL) [7] = experiment: as above; conditions: 72 h
KHYG-1 (IL-2 2.5 ng/mL) [8] = experiment: as above; conditions: 72 h
IMC-1 (IL-2 20 ng/mL) [9] = experiment: as above; conditions: 72 h
[10] = tested on: normal primary NK cells, pool 3 (3 donors) (IL-2 2.5 ng/mL); experiment: as above; conditions: 72 h
[11] = tested on: normal primary NK cells, pool 2 (3 donors) (IL-2 2.5 ng/mL); experiment: as above; conditions: 72 h
DERL-7 (IL-2 2.5 ng/mL) [12] = experiment: as above; conditions: 72 h
NKL (IL-2 2.5 ng/mL) [13] = experiment: as above; conditions: 72 h
NK-92 (IL-2 2.5 ng/mL) [14] = experiment: percent inhibition of viability; higher = more inhibition; conditions: 72 h
YT (IL-2 2.5 ng/mL) [15] = experiment: as above; conditions: 72 h
[16] = tested on: normal primary NK cells, pool 1 (3 donors), resting (IL-2 0 ng/mL); experiment: as above; conditions: 72 h
SNK-6 (IL-2 2.5 ng/mL) [17] = experiment: as above; conditions: 72 h
NK-YS (IL-2 2.5 ng/mL) [18] = experiment: as above; conditions: 72 h
[19] = tested on: normal primary NK cells, pool 1 (3 donors) (IL-2 2.5 ng/mL); experiment: as above; conditions: 72 h
KAI3 (IL-2 2.5 ng/mL) [20] = experiment: as above; conditions: 72 h
KHYG-1 (IL-2 2.5 ng/mL) [21] = experiment: as above; conditions: 72 h
IMC-1 (IL-2 20 ng/mL) [22] = experiment: as above; conditions: 72 h
[23] = tested on: normal primary NK cells, pool 3 (3 donors) (IL-2 2.5 ng/mL); experiment: as above; conditions: 72 h
[24] = tested on: normal primary NK cells, pool 2 (3 donors) (IL-2 2.5 ng/mL); experiment: as above; conditions: 72 h
DERL-7 (IL-2 2.5 ng/mL) [25] = experiment: as above; conditions: 72 h
NKL (IL-2 2.5 ng/mL) [26] = experiment: as above; conditions: 72 h
[27] = tested on: normal NK cells expanded with K562-aAPC; experiment: as above; conditions: 72 h, IL-2 2.5 ng/mL
Protocol: (§1)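 Drug sensitivity and resistance testing on K562-aAPC-expanded normal NK cells: 5 concentrations (10-fold steps over a 10,000-fold range), 72 h at 37 °C, viability by CellTiter-Glo normalised to DMSO and benzethonium chloride controls; DSS from the fitted curve.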

[28] = tested on: normal NK cells expanded with K562-aAPC; experiment: drug sensitivity score (DSS) (DSS units); higher = more sensitive; extreme values may be limits of the assay; conditions: 72 h; IL-2 2.5 ng/mL
Protocol: as §1

Nc1nc2[nH]cnc2c(=S)[nH]1 [Thioguanine] (max concentration tested 10000 nM)
Conditions | drug sensitivity score
DERL-7 (IL-2 2.5 ng/mL) [12] | 6.23
IMC-1 (IL-2 20 ng/mL) [9] | 10
KAI3 (IL-2 2.5 ng/mL) [7] | 6.83
KHYG-1 (IL-2 2.5 ng/mL) [8] | 17.9
NK-92 (IL-2 2.5 ng/mL) [1] | 12.4
NK-YS (IL-2 2.5 ng/mL) [5] | 17.2
NKL (IL-2 2.5 ng/mL) [13] | 9.15
SNK-6 (IL-2 2.5 ng/mL) [4] | 11.7
YT (IL-2 2.5 ng/mL) [2] | 16.8
[3] | 4.42
[6] | 3.98
[10] | 3.64
[11] | 4.48
[28] | 4.06

percent inhibition of viability [%]
Conditions | 1 nM | 10 nM | 100 nM | 1000 nM | 10000 nM
DERL-7 (IL-2 2.5 ng/mL) [25] | -5.49 | 1.22 | -5.6 | 8.62 | 87.2
IMC-1 (IL-2 20 ng/mL) [22] | -5.55 | -1.21 | -1.21 | 33.3 | 97.2
KAI3 (IL-2 2.5 ng/mL) [20] | -7.74 | -2.97 | -0.62 | 15.1 | 78.8
KHYG-1 (IL-2 2.5 ng/mL) [21] | -13.1 | -8.14 | -0.41 | 99.5 | 106
NK-92 (IL-2 2.5 ng/mL) [14] | -10.2 | -5.6 | 17.5 | 52.7 | 98.4
NK-YS (IL-2 2.5 ng/mL) [18] | -7.28 | -5.53 | 13.5 | 84.7 | 95.8
NKL (IL-2 2.5 ng/mL) [26] | -14 | -21.1 | 1.79 | 26.9 | 93.4
SNK-6 (IL-2 2.5 ng/mL) [17] | -10.4 | -12.3 | -12.4 | 52.4 | 96.7
YT (IL-2 2.5 ng/mL) [15] | -6.35 | -2.99 | 5.94 | 87.9 | 105
[16] | 1.38 | 16.6 | 9.25 | 15.6 | 37.5
[19] | 2.84 | 12.9 | 10.3 | 6.9 | 52.7
[23] | -3.74 | -0.43 | 9.27 | 10.8 | 44
[24] | -0.91 | -2.84 | 9.06 | 9.05 | 55
[27] | -4.14 | -5.02 | -5.79 | 6.11 | 56.7

CC(C)[C@H]1C(=O)N[C@@H](CCCNC(=N)N)C(=O)NCC(=O)N[C@@H](CC(=O)O)C(=O)N[C@H](Cc2ccccc2)C(=O)N1C [Cilengitide] (max concentration tested 10000 nM)
Conditions | drug sensitivity score
DERL-7 (IL-2 2.5 ng/mL) [12] | 0
IMC-1 (IL-2 20 ng/mL) [9] | 0
KAI3 (IL-2 2.5 ng/mL) [7] | 0
KHYG-1 (IL-2 2.5 ng/mL) [8] | 0
NK-92 (IL-2 2.5 ng/mL) [1] | 0
NK-YS (IL-2 2.5 ng/mL) [5] | 0
NKL (IL-2 2.5 ng/mL) [13] | 0
SNK-6 (IL-2 2.5 ng/mL) [4] | 0
YT (IL-2 2.5 ng/mL) [2] | 0
[3] | 0
[6] | 0
[10] | 0
[11] | 0
[28] | 0

percent inhibition of viability [%]
Conditions | 1 nM | 10 nM | 100 nM | 1000 nM | 10000 nM
DERL-7 (IL-2 2.5 ng/mL) [25] | 1.94 | -0.89 | 5.16 | -1.67 | 1.74
IMC-1 (IL-2 20 ng/mL) [22] | -4.13 | -2.67 | -2.6 | -4.07 | -10
KAI3 (IL-2 2.5 ng/mL) [20] | 0.99 | -4.51 | 0.53 | -7.41 | -4.2
KHYG-1 (IL-2 2.5 ng/mL) [21] | -4.74 | -8.58 | -8.46 | -5.89 | -5.46
NK-92 (IL-2 2.5 ng/mL) [14] | -6.89 | -15.6 | -2.78 | -19.4 | -3.46
NK-YS (IL-2 2.5 ng/mL) [18] | 3.77 | -3.77 | -3.08 | -1.52 | -1.33
NKL (IL-2 2.5 ng/mL) [26] | -5.73 | -8.69 | -8.49 | -3.48 | -5.17
SNK-6 (IL-2 2.5 ng/mL) [17] | 5.33 | -1.64 | -18.7 | -5.25 | -3.56
YT (IL-2 2.5 ng/mL) [15] | -3.44 | -9.37 | -2 | -8.27 | -2.28
[16] | -16.2 | -13.2 | -18.2 | -14 | -17.6
[19] | -11.5 | -10.7 | -11.7 | -4.42 | -5.41
[23] | -10.7 | -5.35 | -6.3 | -9.92 | -10.2
[24] | -8.85 | -4.43 | -5.82 | -9.18 | -7.87
[27] | -8.83 | -11.2 | -7.88 | -10.2 | -11.3

CS(=O)(=O)c1ccc(-c2cnc(N)c(C(=O)Nc3ccccc3)n2)cc1 [VE-821] (max concentration tested 10000 nM)
Conditions | drug sensitivity score
DERL-7 (IL-2 2.5 ng/mL) [12] | 4.71
IMC-1 (IL-2 20 ng/mL) [9] | 4.37
KAI3 (IL-2 2.5 ng/mL) [7] | 8.88
KHYG-1 (IL-2 2.5 ng/mL) [8] | 8.93
NK-92 (IL-2 2.5 ng/mL) [1] | 7.01
NK-YS (IL-2 2.5 ng/mL) [5] | 4.96
NKL (IL-2 2.5 ng/mL) [13] | 0.89
SNK-6 (IL-2 2.5 ng/mL) [4] | 6.77
YT (IL-2 2.5 ng/mL) [2] | 0
[3] | 0
[6] | 0
[10] | 0.29
[11] | 0.62
[28] | 3.68

percent inhibition of viability [%]
Conditions | 1 nM | 10 nM | 100 nM | 1000 nM | 10000 nM
DERL-7 (IL-2 2.5 ng/mL) [25] | 4.33 | 7.29 | 1.29 | 12.9 | 50.9
IMC-1 (IL-2 20 ng/mL) [22] | -4.03 | 0.79 | -1.04 | 4.32 | 67.9
KAI3 (IL-2 2.5 ng/mL) [20] | -6.99 | -6.14 | 7.79 | 43.5 | 52
KHYG-1 (IL-2 2.5 ng/mL) [21] | -3.09 | -0.84 | 3.42 | 23.8 | 95.3
NK-92 (IL-2 2.5 ng/mL) [14] | -13.2 | -3.86 | 2.78 | 36 | 48
NK-YS (IL-2 2.5 ng/mL) [18] | -5.61 | -3.96 | 4.64 | 25.1 | 40.2
NKL (IL-2 2.5 ng/mL) [26] | -16.3 | -14.8 | -15.7 | -0.56 | 24.9
SNK-6 (IL-2 2.5 ng/mL) [17] | 3.87 | -9.33 | -1.01 | 33.3 | 52.1
YT (IL-2 2.5 ng/mL) [15] | -4.34 | -6.49 | -4.51 | 4.75 | 9.28
[16] | 9.92 | 20.7 | 22.8 | 23 | 21.5
[19] | -1.78 | 22.5 | 3.18 | 5.45 | 6.99
[23] | -3.66 | 1.35 | 5.12 | 0.23 | 15.6
[24] | -7.66 | 8.41 | 7.62 | 7.68 | 15.6
[27] | -5.95 | -7.38 | -2.06 | 18.1 | 32.8

CNC(=O)c1ccc(-c2cnc3ncc(Cc4ccc5ncccc5c4)n3n2)cc1F [NVP-INC280] (max concentration tested 1000 nM)
Conditions | drug sensitivity score
DERL-7 (IL-2 2.5 ng/mL) [12] | 0
IMC-1 (IL-2 20 ng/mL) [9] | 0.81
KAI3 (IL-2 2.5 ng/mL) [7] | 0.03
KHYG-1 (IL-2 2.5 ng/mL) [8] | 0
NK-92 (IL-2 2.5 ng/mL) [1] | 0
NK-YS (IL-2 2.5 ng/mL) [5] | 0
NKL (IL-2 2.5 ng/mL) [13] | 0
SNK-6 (IL-2 2.5 ng/mL) [4] | 4.62
YT (IL-2 2.5 ng/mL) [2] | 0.42
[3] | 0
[6] | 0
[10] | 0
[11] | 0
[28] | 0.67

percent inhibition of viability [%]
Conditions | 0.1 nM | 1 nM | 10 nM | 100 nM | 1000 nM
DERL-7 (IL-2 2.5 ng/mL) [25] | -5.28 | 4.26 | -9.16 | -6.92 | -4.89
IMC-1 (IL-2 20 ng/mL) [22] | 0.35 | -0.99 | 7.3 | 10.2 | 14.7
KAI3 (IL-2 2.5 ng/mL) [20] | -3.13 | -7.87 | 2.81 | 8.6 | 10.3
KHYG-1 (IL-2 2.5 ng/mL) [21] | 0.53 | 0.71 | 6.28 | 8.45 | 7.71
NK-92 (IL-2 2.5 ng/mL) [14] | -4.47 | -11.1 | 1.26 | -6.37 | 7.6
NK-YS (IL-2 2.5 ng/mL) [18] | -3.18 | -2.55 | 2.09 | 4.91 | 7.49
NKL (IL-2 2.5 ng/mL) [26] | -14.8 | -12 | -3.62 | -0.32 | 1.94
SNK-6 (IL-2 2.5 ng/mL) [17] | 1.66 | -4.69 | 8.68 | 23.7 | 31.8
YT (IL-2 2.5 ng/mL) [15] | -0.04 | -0.12 | 2.87 | 3.88 | 14.8
[16] | -4.36 | 11.4 | -16.1 | -15.8 | -5.95
[19] | -3.26 | -0.85 | -0.05 | -8.05 | -1.86
[23] | -4.63 | -9.7 | -8.57 | -10.9 | -0.53
[24] | -5.16 | -9.82 | 0.45 | -1.98 | 7.71
[27] | 3.07 | -1.65 | 0.35 | 12.4 | 9.59

Reference: the supplement of paper PMC5908809
